Consider eleven compounds from patent US7655784B2, “Trans-sialidases obtained from Trypanosoma congolense” (N.V. Nutricia, priority 2002, dated 2010).

In one assay the test system is trans-sialidase TS2. Put plainly: Trans-sialidase transfer activity of TS2 in the presence of salts, metal ions and putative inhibitors. Type of assay: biochemical, Trypanosoma congolense. The conditions noted are these: for Salt effect: reduction of enzyme activity: 1M salt, de-salting produces enzyme activity again; for Effect of putative inhibitors: 10 mM. The procedure:
(§1) In order to determine the transfer activity of the trans-sialidase, 25 μl enzyme solution in 50 mM BisTris buffer, pH7.0, are incubated together with 1 mM NeufAc-α(2-3) lactose as a donor and 0.5 mM 4-methylumbelliferyl galactoside as an acceptor in a final volume of 50 μl at 37° C. for 2 hrs. The incubation is halted by adding 1 ml ice cold water. The reaction batch is then introduced to columns previously filled with 0.3 ml Q Sepharose FF (acetate form) and pre-equilibrated with water. After having washed out the acceptor with water and having discarded the dead volume (200 μl 1N HCl), the sialated product is eluated with 1N HCl (700 μl). Following acid hydrolysis of the product at 95° C. for 45 mins and cooling on ice, the probe is neutralised with 250-290 μl 2 N NaOH and 300 μl 1M glycin/NaOH buffer pH 10.0. The fluorescence of the released methylumbelliferone is measured in black 96 well plates (Microfluor, Dynex, U.S.A.) with a stimulation wave length of 365 nm and an emission wave length of 450 nm. The activity of the enzyme corresponds to the intensity of the fluorescence measured and can be read off on a previously established calibration curve (method in accordance with Engstler et al. 1992).

The next assay relates to trans-sialidase TS1. Put plainly: Trans-sialidase transfer activity of TS1 in the presence of salts, metal ions and putative inhibitors. The format is biochemical, Trypanosoma congolense. The settings on record: for Salt effect: reduction of enzyme activity: 1M salt, de-salting produces enzyme activity again; for Effect of putative inhibitors: 10 mM. How it is done:
as §1

`[Co+2]` [Co^2+]: the “Effect of metal ions” value in the assay with trans-sialidase TS2 (5 mM) is recorded as “Cu^2+, Zn^2+, Fe^2+, Co^2+: little effect”; in the assay with trans-sialidase TS1 (5 mM) it was “Cu^2+, Zn^2+, Fe^2+, Co^2+: little effect”.

Take `[Cu+2]` [Cu^2+]: the “Effect of metal ions” value in the assay on trans-sialidase TS2 (5 mM) is listed as “Cu^2+, Zn^2+, Fe^2+, Co^2+: little effect”; in the assay with trans-sialidase TS1 (5 mM), “Cu^2+, Zn^2+, Fe^2+, Co^2+: little effect”.

As for `[Cl-].[Na+]` [NaCl], the “Salt effect: reduction of enzyme activity” value is “enzymes by 50%, de-salting produces enzyme” in the assay on trans-sialidase TS2 and “enzymes by 50%, de-salting produces enzyme” in the assay on trans-sialidase TS1.

Take `[Fe+2]` [Fe^2+]: the “Effect of metal ions” value in the assay with trans-sialidase TS2 (5 mM) is on record as “Cu^2+, Zn^2+, Fe^2+, Co^2+: little effect”; with trans-sialidase TS1 (5 mM), “Cu^2+, Zn^2+, Fe^2+, Co^2+: little effect”.

On to `CC(=O)N[C@H]1[C@H]([C@H](O)[C@H](O)CO)OC(C(=O)O)=C[C@@H]1O` [N-acetyl-2,3-didehydro-2-deoxyneuraminic acid, reference compound], for which the “Effect of putative inhibitors” value in the assay with trans-sialidase TS2 and in the assay on trans-sialidase TS1 was “acid: little inhibition” throughout.

For the compound `[Cl-].[K+]` [KCl], the “Salt effect: reduction of enzyme activity” value in the assay on trans-sialidase TS2 is listed as “enzymes by 50%, de-salting produces enzyme”; in the assay with trans-sialidase TS1, “enzymes by 50%, de-salting produces enzyme”.

Consider `[Mn+2]` [Mn^2+], for which the “Effect of metal ions” value in the assay with trans-sialidase TS2 (20 mM) is 20 mM Ca^2+, Mg^2+, Mn^2+: no effect 5 mM; in the assay with trans-sialidase TS1 (20 mM) it was 20 mM Ca^2+, Mg^2+, Mn^2+: no effect 5 mM.

In the case of `[Zn+2]` [Zn^2+], the “Effect of metal ions” value was “Cu^2+, Zn^2+, Fe^2+, Co^2+: little effect” with trans-sialidase TS2 (5 mM) and “Cu^2+, Zn^2+, Fe^2+, Co^2+: little effect” in the assay with trans-sialidase TS1 (5 mM).

Consider `[Mg+2]` [Mg^2+], for which the “Effect of metal ions” value in the assay on trans-sialidase TS2 (20 mM) is 20 mM Ca^2+, Mg^2+, Mn^2+: no effect 5 mM; in the assay with trans-sialidase TS1 (20 mM), 20 mM Ca^2+, Mg^2+, Mn^2+: no effect 5 mM.

In the case of `O=C(O)C(=O)Nc1ccc([N+](=O)[O-])cc1` [N-(4-nitrophenyl)oxamic acid, reference compound], the “Effect of putative inhibitors” value in the assay on trans-sialidase TS2 and in the assay with trans-sialidase TS1 was 10 mM N-(4-nitrophenyl)oxamic acid: little in each case.

Consider `[Ca+2]` [Ca^2+], for which the “Effect of metal ions” value with trans-sialidase TS2 (20 mM) is on record as 20 mM Ca^2+, Mg^2+, Mn^2+: no effect 5 mM; with trans-sialidase TS1 (20 mM), 20 mM Ca^2+, Mg^2+, Mn^2+: no effect 5 mM.
